Data as given in US5183818A, “Arylalkylether and arylalkylthioether inhibitors of lipoxygenase enzyme activity” (Abbott Laboratories, priority 1991, dated 1993).

Experiments:
[1] = biological target: T1, 5-Lipoxygenase from RBL-1 20,000 × g Supernatant (Rattus norvegicus, UniProt P12527); test: 5-lipoxygenase inhibition in 20,000 xg supernatant of homogenized RBL-1 cells (radiolabeled arachidonic acid); type: biochemical; settings: in vitro, incubations in triplicate, read-out: IC50 × 10^6 Molar
T1 construct: 20,000 xg supernatant from 1.5 million homogenized RBL-1 cells; endogenous in cells; host or cells: RBL-1 cells, 20,000 xg supernatant of homogenate
T1 sequence (P12527 1-673): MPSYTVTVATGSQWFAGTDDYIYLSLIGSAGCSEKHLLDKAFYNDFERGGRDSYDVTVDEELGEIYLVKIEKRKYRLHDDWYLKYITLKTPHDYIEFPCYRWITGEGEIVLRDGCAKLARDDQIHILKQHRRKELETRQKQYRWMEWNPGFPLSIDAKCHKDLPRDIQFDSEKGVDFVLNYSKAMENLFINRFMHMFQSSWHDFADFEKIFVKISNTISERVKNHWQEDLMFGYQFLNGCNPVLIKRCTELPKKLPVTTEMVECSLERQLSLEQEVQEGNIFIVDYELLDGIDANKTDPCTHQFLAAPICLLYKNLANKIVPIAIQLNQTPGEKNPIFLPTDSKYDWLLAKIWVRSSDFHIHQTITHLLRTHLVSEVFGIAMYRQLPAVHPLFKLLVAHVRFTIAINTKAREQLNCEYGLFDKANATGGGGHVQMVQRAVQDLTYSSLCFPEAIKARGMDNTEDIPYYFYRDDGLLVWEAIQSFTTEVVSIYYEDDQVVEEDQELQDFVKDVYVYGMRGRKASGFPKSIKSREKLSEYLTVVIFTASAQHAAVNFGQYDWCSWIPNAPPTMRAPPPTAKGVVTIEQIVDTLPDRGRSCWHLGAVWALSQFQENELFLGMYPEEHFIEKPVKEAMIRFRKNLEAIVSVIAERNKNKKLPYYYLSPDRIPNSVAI
Description: Assays to determine 5-lipoxygenase inhibitory activity were performed in […] incubations containing the 20,000 xg supernatant from 1.5 million homogenized RBL-1 cells and various concentrations of the test compound. Reactions were initiated by addition of radiolabeled arachidonic acid and terminated by acidification and ether extraction. Reaction products were separated from nonconverted substrate by thin layer chromatography and measured by liquid scintillation spectroscopy. All incubations are performed in triplicate. Inhibition of 5-lipoxygenase activity was calculated as the ratio of the amount of product formed in the presence and absence of inhibitor. IC50 values (concentration of compound producing 50% enzyme inhibition) were calculated by linear regression analysis of percentage inhibition versus log inhibitor concentration plots. (Dyer, R. D.; Haviv, F.; Hanel, A. M.; Bornemier, D. A.; Carter, G. W. Fed. Proc., Fed. Am. Soc. Exp. Biol. 1984, 43, 1462A).

[2] = test system: Leukotriene Biosynthesis; test: Inhibition of leukotriene biosynthesis in vivo, rat peritoneal anaphylaxis model; settings: 200 μmol/kg oral (gavage) one hour prior to antigen challenge, peritoneal fluids 15 minutes after challenge
Description: Inhibition of the biosynthesis of leukotrienes in vivo after oral administration of compound was determined using a rat peritoneal anaphylaxis model in a similar manner as that described by Young and coworkers (Young, P. R.; Dyer, R. D.; Carter, G. W. Carter, G. W. Fed. Proc., Fed. Am. Soc. Exp. Biol. 1985, 44, 1185). In this model rats were injected intraperitoneally (ip) with rabbit antibody to bovine serum albumin (BSA) and three hours later injected ip with BSA to induce an antigen antibody response. Rats were sacrificed 15 minutes after this challenge and the peritoneal fluids were collected and analyzed for leukotriene levels. Test compounds were administered by gavage one hour prior to the antigen challenge. Percent inhibition values were determined by comparing the treatment group to the mean of the control group, and the results are presented in Table 2 for representative compounds of the present invention.

SMILES	IC50 [1] [µM]	Percent Inhibition of Leukotrienes at 200 μmol/kg (Oral Dose) [2] [%]
CC(COCc1ccsc1)N(O)C(N)=O (stereo not shown) [Example 21]	8.4	
NC(=O)N(O)CCOCc1cccs1 [Example 19, N-Hydroxy-N-[2-(thien-2-ylmethoxy)ethyl] urea]	4.1	100
NC(=O)N(O)CCOCc1cc2ccccc2s1 [Example 16, N-Hydroxy-N-[2-(1-(benzo[b]thien-2-yl)methoxy)ethyl] urea]	0.67	
CC(OCCN(O)C(N)=O)c1cc2ccccc2s1 (stereo not shown) [Example 15, N-Hydroxy-N-[2-(1-[1-(benzo[b]thien-2-yl)]ethoxy)ethyl) urea]	0.2	
CNC(=O)N(O)C(C)CSCc1ccc(CN(C)C)o1 (stereo not shown) [Example 18, N-Hydroxy-N-[2-(1-(5-N,N-dimethylaminomethyl)fur-2-ylmethylthio)-propyl]-N'-methyl urea]	27.6	
CC(CSCc1ccco1)N(O)C(N)=O (stereo not shown) [Example 1]	5.5	71
Cc1ccc(COCCN(O)C(N)=O)s1 [Example 14, N-Hydroxy-N-[2-(1-(5-methylthien-2-yl)methoxy)ethyl] urea]	3	92
CC(CSc1ccccn1)N(O)C(N)=O (stereo not shown) [Example 2, N-hydroxy-N-[2-(1-(2-pyridyl)thio)propyl] urea]	9.7	
Cc1cc(COCCN(O)C(N)=O)c(C)o1 [Example 9, N-Hydroxy-N-[2-(1-(2,5-dimethylfur-3yl)methoxy)ethyl] urea]	6.9	
CC(COCc1ccoc1)N(O)C(N)=O (stereo not shown) [Example 11]	9.3	78
Cc1ccc(COCCN(O)C(N)=O)o1 [Example 6, N-Hydroxy-N-[2-(5-methylfur-2-ylmethoxy)ethyl] urea]	7.3	

More lines, main results first:

IC50 [1] [µM]	SMILES	Percent Inhibition of Leukotrienes at 200 μmol/kg (Oral Dose) [2] [%]
4.6	Cc1ccc(COCC(C)N(O)C(N)=O)o1 (stereo not shown) [Example 5]	
1.9	Cc1ccc(COCC(C)N(O)C(N)=O)s1 (stereo not shown) [Example 13]	
7.3	CC(OCC(C)N(O)C(N)=O)c1ccco1 (stereo not shown) [Example 12, N-Hydroxy-N-[2-(1-[1-(fur-2-yl)ethoxy)]propyl] urea]	
6.6	Cc1ccc(C(C)OCC(C)N(O)C(N)=O)o1 (stereo not shown) [Example 7, N-Hydroxy-N-[2-(1-[1-(5-methylfur-2-yl)]ethoxy)propyl] urea]	
6.3	Cc1ccc(C(C)OCCN(O)C(N)=O)o1 (stereo not shown) [Example 4, N-Hydroxy-N-[2-(1-[1-(5-methylfur-2-yl)]ethoxy)ethyl] urea]	
12	CC(COCc1ccco1)N(O)C(N)=O (stereo not shown) [Example 3]	77
0.46	CC(COCc1cc2ccccc2s1)N(O)C(N)=O (stereo not shown) [Example 17]	89
5.7	Cc1cc(COCC(C)N(O)C(N)=O)c(C)o1 (stereo not shown) [Example 8]	
4.5	CC(COCc1cccs1)N(O)C(N)=O (stereo not shown) [Example 20]	
6	Cc1occc1COCC(C)N(O)C(N)=O (stereo not shown) [Example 10]	75
